In ChEMBL document CHEMBL3885861, “Open TG-GATES”:

Organism: Rattus norvegicus
Test: Open TG-GATES - Regimen: Single
Assay type: toxicity, organism-based, Sprague-Dawley
Design: regimen Single, gender Male, age 6 weeks
Conditions: in vivo, po, 15 mg/kg, route gavage, dose level Middle; for APTT / Bas / Eos / Fbg / Hb / Ht / Lym / MCH / MCHC / MCV / Mono / Neu / PT / Plat / RBC / Ret / WBC: tissue Blood; for KIDNEY_L / KIDNEY_R / KIDNEY_TOTAL: tissue Kidney; for LIVER: tissue Liver; for A/G / ALP / ALT / AST / BUN / CRE / Ca / Cl / DBIL / GLC / IP / K / LDH / Na / PL / RALB / TBIL / TC / TG / TP / gamma-GTP: tissue Plasma

Structure (SMILES): CC(=N)S [THIOACETAMIDE]
- TERMINAL_BW (3 h): 190.8 g
- APTT (3 h): 16.9 s
- Bas (3 h): 0%
- Eos (3 h): 0.2%
- Fbg (3 h): 228 mg/dL
- Hb (3 h): 13.2 g/dL
- Ht (3 h): 39.8%
- Lym (3 h): 82%
- MCH (3 h): 21.7 pg
- MCHC (3 h): 33.1%
- MCV (3 h): 65.4 fL
- Mono (3 h): 8%
- Neu (3 h): 10%
- PT (3 h): 12.4 s
- Plat (3 h): 102.8 x10_4/uL
- RBC (3 h): 608.5 x10_4/ul
- Ret (3 h): 10%
- WBC (3 h): 130 x10_2/uL
- KIDNEY_L (3 h): 0.9 g
- KIDNEY_R (3 h): 0.9 g
- KIDNEY_TOTAL (3 h): 1.8 g
- LIVER (3 h): 8.9 g
- A/G (3 h): 2.4
- ALP (3 h): 868.5 IU/L
- ALT (3 h): 33.8 IU/L
- AST (3 h): 71 IU/L
- BUN (3 h): 11.8 mg/dL
- CRE (3 h): 0.5 mg/dL
- Ca (3 h): 10.9 mg/dL
- Cl (3 h): 104.5 meq/L
- DBIL (3 h): 0.0025 mg/dL
- GLC (3 h): 175.8 mg/dL
- IP (3 h): 9.6 mg/dL
- K (3 h): 4.4 meq/L
- LDH (3 h): 84.2 IU/L
- Na (3 h): 138.8 meq/L
- PL (3 h): 141.5 mg/dL
- RALB (3 h): 4 g/dL
- TBIL (3 h): 0.3 mg/dL
- TC (3 h): 81.5 mg/dL
- TG (3 h): 55 mg/dL
- TP (3 h): 5.7 g/dL
- gamma-GTP (3 h): 3.2 IU/L
- TERMINAL_BW (6 h): 187.8 g
- APTT (6 h): 17.2 s
- Bas (6 h): 0%
- Eos (6 h): 0.6%
- Fbg (6 h): 224.8 mg/dL
- Hb (6 h): 13.4 g/dL
- Ht (6 h): 40.5%
- Lym (6 h): 74.6%
- MCH (6 h): 21.6 pg
- MCHC (6 h): 33.2%
- MCV (6 h): 65.1 fL
- Mono (6 h): 5.8%
- Neu (6 h): 19.4%
- PT (6 h): 12.7 s
- Plat (6 h): 97.4 x10_4/uL
- RBC (6 h): 621.2 x10_4/ul
- Ret (6 h): 10%
- WBC (6 h): 125.4 x10_2/uL
- KIDNEY_L (6 h): 0.9 g
- KIDNEY_R (6 h): 0.9 g
- KIDNEY_TOTAL (6 h): 1.8 g
- LIVER (6 h): 8.4 g
- A/G (6 h): 2.1
- ALP (6 h): 924.4 IU/L
- ALT (6 h): 33 IU/L
- AST (6 h): 70.4 IU/L
- BUN (6 h): 10.2 mg/dL
- CRE (6 h): 0.6 mg/dL
- Ca (6 h): 10.5 mg/dL
- Cl (6 h): 104 meq/L
- DBIL (6 h): 0.022 mg/dL
- GLC (6 h): 171.4 mg/dL
- IP (6 h): 9.1 mg/dL
- K (6 h): 4.9 meq/L
- LDH (6 h): 77 IU/L
- Na (6 h): 137.2 meq/L
- PL (6 h): 142.8 mg/dL
- RALB (6 h): 3.7 g/dL
- TBIL (6 h): 0.4 mg/dL
- TC (6 h): 80 mg/dL
- TG (6 h): 73 mg/dL
- TP (6 h): 5.4 g/dL
- gamma-GTP (6 h): 1 IU/L
- TERMINAL_BW (9 h): 183.3 g
- APTT (9 h): 17.2 s
- Bas (9 h): 0%
- Eos (9 h): 0.6%
- Fbg (9 h): 226 mg/dL
- Hb (9 h): 13.2 g/dL
- Ht (9 h): 40.2%
- Lym (9 h): 67.2%
- MCH (9 h): 21.5 pg
- MCHC (9 h): 33%
- MCV (9 h): 65.1 fL
- Mono (9 h): 8.8%
- Neu (9 h): 23.4%
- PT (9 h): 13.3 s
- Plat (9 h): 107 x10_4/uL
- RBC (9 h): 617.4 x10_4/ul
- Ret (9 h): 9.1%
- WBC (9 h): 126.9 x10_2/uL
- KIDNEY_L (9 h): 0.8 g
- KIDNEY_R (9 h): 0.8 g
- KIDNEY_TOTAL (9 h): 1.7 g
- LIVER (9 h): 7.7 g
- A/G (9 h): 2.2
- ALP (9 h): 887.6 IU/L
- ALT (9 h): 31.6 IU/L
- AST (9 h): 71.6 IU/L
- BUN (9 h): 12.6 mg/dL
- CRE (9 h): 0.5 mg/dL
- Ca (9 h): 10.2 mg/dL
- Cl (9 h): 104.2 meq/L
- DBIL (9 h): 0.006 mg/dL
- GLC (9 h): 178.2 mg/dL
- IP (9 h): 9.8 mg/dL
- K (9 h): 4.5 meq/L
- LDH (9 h): 93.6 IU/L
- Na (9 h): 137.2 meq/L
- PL (9 h): 122.6 mg/dL
- RALB (9 h): 3.8 g/dL
- TBIL (9 h): 0.5 mg/dL
- TC (9 h): 71.6 mg/dL
- TG (9 h): 40.6 mg/dL
- TP (9 h): 5.6 g/dL
- gamma-GTP (9 h): 1.4 IU/L
- TERMINAL_BW (24 h): 202.6 g
- APTT (24 h): 16.4 s
- Bas (24 h): 0%
- Eos (24 h): 1%
- Fbg (24 h): 231.6 mg/dL
- Hb (24 h): 13.5 g/dL
- Ht (24 h): 40.7%
- Lym (24 h): 83.8%
- MCH (24 h): 21.9 pg
- MCHC (24 h): 33.1%
- MCV (24 h): 66.1 fL
- Mono (24 h): 6.2%
- Neu (24 h): 9%
- PT (24 h): 12.8 s
- Plat (24 h): 107.7 x10_4/uL
- RBC (24 h): 616 x10_4/ul
- Ret (24 h): 9.1%
- WBC (24 h): 163 x10_2/uL
- KIDNEY_L (24 h): 1 g
- KIDNEY_R (24 h): 0.9 g
- KIDNEY_TOTAL (24 h): 1.9 g
- LIVER (24 h): 10.2 g
- A/G (24 h): 2
- ALP (24 h): 915.6 IU/L
- ALT (24 h): 44.4 IU/L
- AST (24 h): 71 IU/L
- BUN (24 h): 17.2 mg/dL
- CRE (24 h): 0.5 mg/dL
- Ca (24 h): 10.6 mg/dL
- Cl (24 h): 103.8 meq/L
- DBIL (24 h): 0.014 mg/dL
- GLC (24 h): 179.6 mg/dL
- IP (24 h): 7.5 mg/dL
- K (24 h): 5.1 meq/L
- LDH (24 h): 98.6 IU/L
- Na (24 h): 137 meq/L
- PL (24 h): 164 mg/dL
- RALB (24 h): 3.9 g/dL
- TBIL (24 h): 0.3 mg/dL
- TC (24 h): 85.2 mg/dL
- TG (24 h): 149.8 mg/dL
- TP (24 h): 5.8 g/dL
- gamma-GTP (24 h): 2.4 IU/L
